The data set is described as follows: MTT assay of viability and metabolic activity of ex vivo human skin explants after topical application. The class given is cell-based. The note with it: ex vivo human skin explants (5 mm); ex vivo human skin 5 mm explants, 48 hours post treatment, 37° C., compared to the untreated skin control, n=3. The protocol: Sample 1 was tested to determine its toxicity and metabolic properties in comparison to a control and three commercial cleaning agents (irritants)— “SDS” (sodium dodecyl sulfate), Triton™ X-100, and Tween® 20. Human skin was obtained via post-surgical elective surgery under IRB protocol and prepared within 2 hours of surgery as 5 mm explants. The compositions were applied to the surface of the epidermis and incubated for 24 hours and 48 hours at 37° C. At each time point, explants were assessed for viability and metabolic activity via a MTT assay (n=3; mean+/−SEM), a colorimetric assay for assessing cell metabolic activity. […] The metabolic activity (viability) of tissues treated with Sample 1 remained above 50% at 48 hours post treatment compared to the untreated skin control, while those treated with Trition ° X-100 and SDS were <10% and are illustrated in the graph below that plots percent viability and time.
(Formazan colour is commonly taken as a measure of viable cells.)

Bounds are passed on as bounds.

With `CCCCCCCCCCCCOS(=O)(=O)[O-].[Na+]` [SDS, sodium dodecyl sulfate], the viability (in general, the share of living cells, or the viability signal relative to a control) at 48 h is less than 10%.

Source of the values: patent US20240148762A1, “TOPICAL COMPOSITION CONTAINING CANNABINOIDS” (TF Holdings LLC, priority 2022, published 2024).
